Legend:
[1] = system: adhesion of intestinal epithelial cells (HT-29) and monocytic cells (U937) induced by IL-6; assay: Inhibition of IL-6-induced adhesion of monocytes and intestinal epithelial cells; format: cell-based, human; details: Homo sapiens, 3 h; test drug 1 μM; IL-6 10 ng/mL; HT-29/U937; read-out: inhibitory activity (%)
Method: (§1) The inhibitory activity test for intestinal epithelial cell-monocyte adhesion by IL-6 was performed using the same method as in the case of TNF-α. HT-29 cells were cultured in a 24-well plate at the density of 2×10^5 cells/cm^2, and the test drug was pretreated in a medium containing 1% FBS and 1% PS for 1 hour. Thereafter, 10 μg/mL of BCECF-AM was treated thereto and reacted at 37° C. for 30 minutes. U937 cells loaded with BCECF and IL-6 (10 ng/mL) were reacted with HT-29 cells previously treated with the test drug at 37° C. for 3 hours. Upon completion of the reaction, the medium was removed, and the culture flask was washed twice with PBS to remove non-adherent U937 cells. In the next step, the cells were lysed by treating with 0.1% Triton X-100 (0.1 M Tris) and reacted at room temperature for 30 minutes. Then, fluorescence was measured and quantified using a fluostar optima microplate reader (BMG Labtechnologies, Germany).

[2] = system: adhesion of intestinal epithelial cells (HT-29) and monocytic cells (U937) induced by TNF-α; assay: Inhibition of TNF-α-induced adhesion of monocytes and intestinal epithelial cells; format: cell-based, human; details: Homo sapiens; for inhibition at 1 µM: test drug 1 μM, TNF-α 10 ng/mL, HT-29/U937, read-out: Inhibitory activity (%)
Method: as §1, with “HT-29 human colon cancer-derived” for “The inhibitory activity test for intestinal”, “cells and U937 human-derived monocytes were cultured in RPMI 1640 medium containing 10% FBS and 1% penicillin/streptomycin (PS) in a 37° C., 5% CO2 incubator. When” for “cell-monocyte adhesion by IL-6 was performed using”, “cells grew more than 80% of the bottom area of the culture flask, they were passaged at a ratio of 1:3 and used” for “same method as”, “this experiment.” for “the case of TNF-α.”, “TNF-α” for “IL-6”, “Germany) (Carvalho et al., 1996; Thapa et al., 2008).” for “Germany).”

[3] = system: TNBS-induced inflammatory bowel disease rat model; assay: Oral efficacy in TNBS-induced inflammatory bowel disease rat model; format: in vivo, Sprague Dawley rats
Method: (§2) Sprague Dawley rats aged 7-8 weeks were purchased from OrientBio (Korea), stabilized with general solid feed for 3 days, and then used in this experiment. Feed and water were freely supplied during the experiment period, and the temperature of the breeding room was maintained at 25±1° C. and the relative humidity at 50±10%. Lighting management was controlled in a 12-hour light-dark cycle by an automatic lighting controller.
After anesthetizing rats that had been fasted for 24 hours with diethyl ether, 0.8 mL of 5% TNBS diluted with 50v/v % ethanol was slowly injected into the lumen of the colon using a 1 mL syringe connected to a polyethylene catheter, and then, the rats were left standing for 60 seconds in an inverted position in order to prevent 5% TNBS from leaking into the anus. For the control group, only vehicle [50v/v % ethanol] was injected in the same manner as in the other groups (Thapa et al., 2008).
In order to investigate the effect of the drug, the drug was administered at a constant time every day for 5 days from the day after the TNBS treatment.
Changes in body weight of each rat were observed from the fasting stage to the TNBS administration and drug administration process using a digital mass meter.
The colon of the rat was extracted, and the tissue 5-6 cm away from the anus was cut into a length of 1 cm, and the weight of the tissue was measured.
The weighed rat tissues were fixed with 4% paraformaldehyde solution, and then transferred to 30% sucrose solution. When the tissues subside, they were taken out and cut into […] thick using a cryomicrotome (Microm HM 450, Thermo Fisher Scientific, Germany) and stored in a cryopreservation solution. After washing the tissue section with KPBS, the tissue section was attached to a slide glass, dried, and then stained with hematoxylin & Eosin and observed under a microscope.

[4] = system: DSS-induced chronic enteritis mouse model; assay: Oral efficacy in DSS-induced chronic enteritis mouse model; format: in vivo, C57BL/6 mice; details: chronic enteritis (DSS-water-DSS, total 35 days), mouse
Method: as §2, with “C57BL/6 mice” for “Sprague Dawley rats”, “7” for “3”
Enteritis was induced in mice by allowing them to freely ingest drinking water containing 2% DSS salt (M.W. 36,000˜50,000, MP Biomedicals, LLC, OH, USA). For the chronic enteritis model, DSS was administered using a schedule of DSS administration for the first 7 days, administration of normal drinking water for 14 days, repeated administration of DSS for 7 days from the 21st day, and administration of normal drinking water for 7 days. The drug was administered once a day, 6 days a week from the first day of DSS treatment (FIG. 2A). […] In order to measure the dose-dependent therapeutic effect of the drug in the acute enteritis model, DSS was administered for 5 days to induce enteritis, and then the drug was administered for 14 days to measure the degree of recovery and treatment of enteritis (FIG. 3A). The drug was administered orally once daily for […] at a fixed time.
Changes in body weight of each mouse were observed during the DSS and drug administration using a digital mass meter.
The colon of the mouse was extracted, and the length and weight from the anus to the cecum were measured.
Tissue staining was performed in the same manner as in the case of hematoxylin/eosin staining of the rat colon tissue, and scoring indexes of mucosal damage and recovery were applied in the same way.

[5] = oral 1 mg/kg, 5 days, fixed-dose test (Table 6)
[6] = 10 mg/kg, dose-dependence test (Table 7)

| SMILES | inhibition at 1 µM [1] [%] | inhibition at 1 µM [2] [%] | further results |
| --- | --- | --- | --- |
| Cc1nc(NC(=O)c2cc3cc(Br)ccc3[nH]2)c(C)c(C)c1O [Compound X-07, 5-bromo-N-(5-hydroxy-3,4,6-trimethylpyridin-2-yl)-1H-indole-2-carboxamide] | 80.3 | 88.9 | Body weight recovery rate (%) [3, 5]: 72.9%; Intestinal weight recovery rate (%) [3, 5]: 94.9% |
| Cc1nc(NC(=O)c2sc3cc(F)ccc3c2Cl)c(C)c(C)c1O [Compound X-24, 3-chloro-6-fluoro-N-(5-hydroxy-3,4,6-trimethylpyridin-2-yl)benzo[b]thiophene-2-carboxamide] |  |  | IC50 ([2]; inhibition of adhesion by TNF-α): 230 nM; Body weight recovery rate (%) [3, 5]: 86.6%; Intestinal weight recovery rate (%) [3, 5]: 97.4%; Body weight recovery rate (%) ([4]; 1 mg/kg): 22.8%; Intestinal weight recovery rate (%) ([4]; 1 mg/kg): 58.1%; Body weight recovery rate (%) ([4]; 3 mg/kg): 73.3%; Intestinal weight recovery rate (%) ([4]; 3 mg/kg): 98.2% |
| C[C@]12C=CC(=O)C=C1CC[C@H]1[C@@H]3C[C@@H](O)[C@](O)(C(=O)CO)[C@@]3(C)C[C@H](O)[C@@]12F [Triamcinolone, reference compound] |  |  | Body weight recovery rate (%) [3, 6]: 70.0%; Intestinal weight recovery rate (%) [3, 6]: 84.5% |
| Cc1nc(NC(=O)c2sc3cc(F)ccc3c2Cl)c(C)c(C)c1OCC(=O)NC1CC1 [XI-04, 3-chloro-N-(5-(2-(cyclopropylamino)-2-oxoethoxy)-3,4,6-trimethylpyridin-2-yl)-6-fluorobenzo[b]thiophene-2-carboxamide] | 6.5 | 13.9 |  |
| Cc1nc(NC(=O)c2sc3cc(F)ccc3c2Cl)c(C)c(C)c1OCC(=O)NC1CCCCC1 [XI-05, 3-chloro-N-(5-(2-(cyclohexylamino)-2-oxoethoxy)-3,4,6-trimethylpyridin-2-yl)-6-fluorobenzo[b]thiophene-2-carboxamide] | 14.5 | 25.5 |  |
| Cc1nc(NC(=O)c2sc3cc(F)ccc3c2Cl)c(C)c(C)c1OCC(=O)NCc1ccccc1 [XI-06, N-(5-(2-(benzylamino)-2-oxoethoxy)-3,4,6-trimethylpyridin-2-yl)-3-chloro-6-fluorobenzo[b]thiophene-2-carboxamide] | 54.1 | ≥ 50 |  |
| Cc1nc(NC(=O)c2sc3cc(F)ccc3c2Cl)c(C)c(C)c1OCC(=O)Nc1ccccc1 [XI-07, 3-chloro-6-fluoro-N-(3,4,6-trimethyl-5-(2-oxo-2-(phenylamino)ethoxy)pyridin-2-yl)benzo[b]thiophene-2-carboxamide] | 72.8 | 84.1 | Body weight recovery rate (%) [3, 5]: 82.9%; Intestinal weight recovery rate (%) [3, 5]: 91.0% |
| Cc1nc(NC(=O)c2sc3cc(F)ccc3c2Cl)c(C)c(C)c1OC(=O)c1ccccc1 [XI-08, 6-(3-chloro-6-fluorobenzo[b]thiophene-2-carboxamido)-2,4,5-trimethylpyridin-3-yl benzoate] | 6.8 | 7.7 |  |
| Cc1nc(NC(=O)c2sc3cc(F)ccc3c2Cl)c(C)c(C)c1OC(=O)c1ccc(F)cc1 [XI-09, 6-(3-chloro-6-fluorobenzo[b]thiophene-2-carboxamido)-2,4,5-trimethylpyridin-3-yl 4-fluorobenzoate] | 21.2 | 3.4 |  |
| COc1cccc(C(=O)Oc2c(C)nc(NC(=O)c3sc4cc(F)ccc4c3Cl)c(C)c2C)c1 [XI-10, 6-(3-chloro-6-fluorobenzo[b]thiophene-2-carboxamido)-2,4,5-trimethylpyridin-3-yl 3-methoxybenzoate] | 13.1 | 46.5 |  |
| COc1ccc(C(=O)Oc2c(C)nc(NC(=O)c3sc4cc(F)ccc4c3Cl)c(C)c2C)cc1 [XI-11, 6-(3-chloro-6-fluorobenzo[b]thiophene-2-carboxamido)-2,4,5-trimethylpyridin-3-yl 4-methoxybenzoate] | 67 | 77.2 |  |
| Cc1nc(NC(=O)c2sc3cc(F)ccc3c2Cl)c(C)c(C)c1OC(=O)c1ccc(F)cn1 [XI-12, 6-(3-chloro-6-fluorobenzo[b]thiophene-2-carboxamido)-2,4,5-trimethylpyridin-3-yl 5-fluoropicolinate] | 18 | 31.9 |  |
| Cc1nc(NC(=O)c2sc3cc(F)ccc3c2Cl)c(C)c(C)c1OC(=O)c1ccc(F)nc1 [XI-13, 6-(3-chloro-6-fluorobenzo[b]thiophene-2-carboxamido)-2,4,5-trimethylpyridin-3-yl 6-fluoronicotinate] | 15.2 | 20.7 |  |
| Cc1nc(NC(=O)c2sc3cc(F)ccc3c2Cl)c(C)c(C)c1OC(=O)c1ccc(Cl)cn1 [XI-14, 6-(3-chloro-6-fluorobenzo[b]thiophene-2-carboxamido)-2,4,5-trimethylpyridin-3-yl 5-chloropicolinate] | 26.8 | 38.1 |  |
| Cc1nc(NC(=O)c2sc3cc(F)ccc3c2Cl)c(C)c(C)c1OC(=O)C12CC3CC(CC(C3)C1)C2 [XI-16, 6-(3-chloro-6-fluorobenzo[b]thiophene-2-carboxamido)-2,4,5-trimethylpyridin-3-yl (3r,5r,7r)-adamantane-1-carboxylate] | 20.3 | 29.2 |  |
| Cc1nc(NC(=O)c2sc3cc(F)ccc3c2Cl)c(C)c(C)c1OC(=O)N1CCOCC1 [XI-17, 6-(3-chloro-6-fluorobenzo[b]thiophene-2-carboxamido)-2,4,5-trimethylpyridin-3-yl morpholine-4-carboxylate] | 59.6 | ≥ 50 | Body weight recovery rate (%) [3, 5]: 60.2%; Intestinal weight recovery rate (%) [3, 5]: 79.8% |

— patent US12398117B2, “Heteroarylamidopyridinol derivative and pharmaceutical composition comprising same as active ingredient for prevention or treatment of autoimmune disease” (INNOVO THERAPEUTICS INC., priority 2019, dated 2025)
